The numbers were not newly measured in US20150252306A1, “COMPOSITIONS COMPRISING A PUNGENT AGENT” (The Procter & Gamble Company, priority 2014, published 2015), which cites them from elsewhere.

The conditions of this data set: Scoville heat units, given for comparison.

Regarding `COc1cc(CNC(=O)CCCC/C=C/C(C)C)ccc1O` [capsaicin], the pungency level entry is “about 16 000 000 SHU”.
